Laboratory results from ChEMBL document CHEMBL1121605, “Aporphines. 30. (-)-N(2-chloroethyl)-10,11-dihydroxynor-aporphine (chloroethylnorapomorphine), a novel irreversible dopamine receptor antagonist” (J Med Chem, 1980).

What was measured:
Format in all cases: functional
Rattus norvegicus [1] = species on record: Rattus norvegicus; assay: % stimulation of cyclic AMP production in homogenates of rat corpus striatum pre-incubated with 10 uM of NCA and 0 uM of DA
Rattus norvegicus [2] = species on record: Rattus norvegicus; assay: % inhibition of cyclic AMP production in homogenates of rat corpus striatum pre-incubated with 0 uM of NCA and 50 uM of DA
Rattus norvegicus [3] = species on record: Rattus norvegicus; assay: % stimulation of cyclic AMP production in homogenates of rat corpus striatum pre-incubated with 0 uM of NCA and 0 uM of DA
Rattus norvegicus [4] = species on record: Rattus norvegicus; assay: % stimulation of cyclic AMP production in homogenates of rat corpus striatum pre-incubated with 30 uM of NCA and 50 uM of DA
Rattus norvegicus [5] = species on record: Rattus norvegicus; assay: % inhibition of cyclic AMP production in homogenates of rat corpus striatum pre-incubated with 75 uM of NCA and 0 uM of DA
Rattus norvegicus [6] = species on record: Rattus norvegicus; assay: % inhibition of cyclic AMP production in homogenates of rat corpus striatum pre-incubated with 0 uM of NCA and 0 uM of DA
Rattus norvegicus [7] = species on record: Rattus norvegicus; assay: % inhibition of cyclic AMP production in homogenates of rat corpus striatum pre-incubated with 10 uM of NCA and 0 uM of DA
Rattus norvegicus [8] = species on record: Rattus norvegicus; assay: % stimulation of cyclic AMP production in homogenates of rat corpus striatum pre-incubated with 0 uM of NCA and 50 uM of DA
Rattus norvegicus [9] = species on record: Rattus norvegicus; assay: % inhibition of cyclic AMP production in homogenates of rat corpus striatum pre-incubated with 30 uM of NCA and 50 uM of DA
Rattus norvegicus [10] = species on record: Rattus norvegicus; assay: % stimulation of cyclic AMP production in homogenates of rat corpus striatum pre-incubated with 75 uM of NCA and 0 uM of DA
Rattus norvegicus [11] = species on record: Rattus norvegicus; assay: % inhibition of cyclic AMP production in homogenates of rat corpus striatum pre-incubated with 30 uM of NCA and 0 uM of DA
Rattus norvegicus [12] = species on record: Rattus norvegicus; assay: % stimulation of cyclic AMP production in homogenates of rat corpus striatum preincubated with 30 uM of NCA and 0 uM of DA

`Oc1ccc2c(c1O)-c1cccc3c1[C@@H](C2)N(CCCl)CC3` showed a Stimulation (Rattus norvegicus [1]) of 83.9%, an inhibition (Rattus norvegicus [2]) of 2% and a Stimulation (Rattus norvegicus [3]) of 100%. For the same compound, the Stimulation (Rattus norvegicus [4]) was 103%, the inhibition (Rattus norvegicus [5]) was 92% and the inhibition (Rattus norvegicus [6]) was 0%. For the same compound, the inhibition (Rattus norvegicus [7]) was 16%, the Stimulation (Rattus norvegicus [8]) was 98% and the inhibition (Rattus norvegicus [9]) was 3%. For the same compound, the Stimulation (Rattus norvegicus [10]) was 8.1%, the inhibition (Rattus norvegicus [11]) was 56% and the Stimulation (Rattus norvegicus [12]) was 43.9%.
